Assay results reported in paper PMC11858207, “Discovery of Isobavachin, a Natural Flavonoid, as an Apolipoprotein E4 (ApoE4) Structure Corrector for Alzheimer’s Disease” (Molecules, 2025).
“And” between values parts separate entries of the source, which are not always exact repeats. Equal values may be shown once.

How the values were obtained:
[1] = biological target: T1, His-Sumo-DNPH1 (2′-deoxynucleoside 5′-phosphate N-hydrolase 1) (Homo sapiens, UniProt O43598); assay: Surface plasmon resonance (SPR) binding, negative control protein
T1 construct: made in house; host or cells: E. coli
T1 sequence (O43598 1-174): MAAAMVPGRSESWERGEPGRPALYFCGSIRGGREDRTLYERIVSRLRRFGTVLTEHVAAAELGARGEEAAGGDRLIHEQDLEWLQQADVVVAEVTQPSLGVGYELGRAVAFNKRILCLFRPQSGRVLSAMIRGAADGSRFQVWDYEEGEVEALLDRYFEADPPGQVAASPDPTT
Text: (§1) The top virtual hit Isobavachin was further subjected to surface plasmon resonance (SPR) analysis using Biacore T200 (Cytiva, Marlborough, MA, USA) to determine its binding constants with both the ApoE3 and ApoE4 proteins. Together with the human recombinant ApoE3 and ApoE4 proteins, a negative control protein 2′-deoxynucleoside 5′-phosphate N-hydrolase (His-Sumo-DNPH1) was also included in the SPR analysis. The His-Sumo-DNPH1 is structurally unrelated to ApoE proteins, while having a similar size as ApoE proteins (~30 KDa).
(§2) The biophysical binding analysis of ligands with ApoE3 and ApoE4 proteins was carried out using the SPR technique. Human recombinant ApoE3 or ApoE4 proteins were purchased from PeproTech (Cranbury, NJ, USA) and reconstituted according to the manufacturer’s instructions. The negative control protein was His-Sumo-DNPH1 (2′-deoxynucleoside 5′-phosphate N-hydrolase 1), produced in-house in E. coli by The Wistar Institute, Philadelphia. The proteins were covalently attached to a carboxymethyl dextran sensor chip (CMD700M, from Xantec bioanalytics, Düsseldorf, Germany) using standard amine coupling in HEPES buffered saline. The chip is first conditioned for 180 s at 10 µL/min with 1 M NaCl, 0.1 mM Na Borate, pH 9.0, and then activated with 250 mM EDC/100 mM NHS for 600 s at 10 µL/min. The ApoE3/4 and DNPH1 proteins diluted in 10 mM sodium acetate (pH 5.5 and 4.0, respectively) were injected and immobilized on respective flow cells. After immobilization, the remaining activated sites were blocked with 1 M ethanolamine at 10 µL/min for 180 s. Test compounds (purchased from Cayman Chemical (Ann Arbor, MI, USA) and MedChemExpress (Monmouth Junction, NJ, USA)) were first diluted in pure DMSO, which were then further diluted in the running buffer without DMSO (10 mM HEPES, pH 7.4, 150 mM NaCl, 0.005% Tween20) to match the DMSO concentrations of the sample and the running buffer. The association and dissociation times were 60s and 120s, respectively, and the flow rate was 30 µL/min. After each compound injection, the needle was washed in 50% DMSO to reduce compound carry-over. Solvent correction cycles were also included to correct for bulk refractive index changes associated with DMSO.

[2] = biological target: T2, human recombinant ApoE4 (Homo sapiens, UniProt P02649, C130R); assay: Surface plasmon resonance (SPR) binding, ApoE4; settings: Biacore T200
T2 construct: purchased PeproTech
T2 sequence (P02649 19-317 C130R): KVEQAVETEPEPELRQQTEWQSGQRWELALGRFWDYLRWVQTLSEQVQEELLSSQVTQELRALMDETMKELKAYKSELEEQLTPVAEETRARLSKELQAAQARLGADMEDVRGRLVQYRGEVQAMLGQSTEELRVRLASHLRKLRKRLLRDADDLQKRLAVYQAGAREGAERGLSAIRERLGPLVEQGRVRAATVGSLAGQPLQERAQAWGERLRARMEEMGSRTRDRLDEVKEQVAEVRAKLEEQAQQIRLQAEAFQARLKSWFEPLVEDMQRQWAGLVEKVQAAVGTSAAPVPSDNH
Text: as §1, §2

[3] = biological target: T3, human recombinant ApoE3 (Homo sapiens, UniProt P02649); assay: Surface plasmon resonance (SPR) binding, ApoE3; settings: Biacore T200
T3 construct: purchased PeproTech
T3 sequence (P02649 19-317): as the sequence (P02649 19-317 C130R) above, with R112C counted along it
Text: as §1, §2

[4] = parameters: method as in PMID 29425649; settings: cited from earlier work
[5] = biological target: ApoE4; parameters: method as in PMID 30933499; settings: experimental ApoE4 binding Kd reported by AbbVie team; read-out: NMR Kd; cited from earlier work

Row | SMILES | DNPH1 Kd [1] | Kd [2] | Kd [3] | Kd [1] | blood–brain barrier (BBB) penetration [4] | Kd [5]
1 | CC(C)=CCc1cc2c(cc1O)O[C@H](c1ccc(O)cc1)CC2=O [Bavachin] | No binding | 64 µM | 59 µM |  |  | 
2 | O=c1c(-c2ccc(O)cc2)coc2cc(O)ccc12 [Daidzein] |  | > 100 µM | > 100 µM | > 100 µM |  | 
3 | O=c1c(-c2ccc(O)cc2)coc2cc(O)cc(O)c12 [Genistein] |  | > 100 µM | > 100 µM | > 100 µM |  | 
4 | CC(C)=CCc1cc([C@@H]2CC(=O)c3ccc(O)c(CC=C(C)C)c3O2)ccc1O [Glabrol] |  | 77 µM | > 100 µM | > 100 µM |  | 
5 | Oc1ccc(C2=Cc3ccc(O)cc3OC2)cc1 [Idronoxil] |  | > 100 µM | > 100 µM | > 100 µM |  | 
6 | CC(C)=CCc1c(O)ccc2c1O[C@H](c1ccc(O)cc1)CC2=O [Isobavachin] |  | ~0.54 µM and 0.54 µM | ~0.62 µM and 0.62 µM | > 100 µM | readily penetrate | 
7 | COc1cc(O)c(CC=C(C)C)c2c1C(=O)CC(c1ccc(O)cc1)O2 (stereo not shown) [Isoxanthohumol] |  | 40 µM | 38 µM | > 100 µM |  | 
8 | CC(C)=CCc1c(-c2ccc(O)cc2O)oc2c3c(cc(O)c2c1=O)OC(C)(C)C=C3 [Morusin] |  | > 100 µM | > 100 µM | 69 µM |  | 
9 | CC(C)=CCc1c(-c2ccc(O)cc2O)oc2c(CC=C(C)C)c(O)cc(O)c2c1=O [Mulberrin] |  | > 100 µM | > 100 µM | > 100 µM |  | 
10 | N=C(N)C1(c2cccc(Cl)c2)CCC1 [compound 83673143] |  |  |  |  |  | 900 ± 108 µM
11 | CC(C)(O)c1ccc(-c2cc(Cl)cc(C3(C(=N)N)CCC3)c2)cc1 [compound 137796780] |  |  |  |  |  | 30 ± 4 µM
12 | N=C(N)C1(c2cc(Cl)cc(-c3ccccc3)c2)CCC1 [compound 155530661] |  |  |  |  |  | 230 ± 24 µM
13 | CCNS(=O)(=O)c1ccc(-c2cc(Cl)cc(C3(C(=N)N)CCC3)c2)cc1 [compound 155552638] |  |  |  |  |  | 20 ± 4 µM
14 | N=C(N)C1(c2cc(Cl)cc(-c3ccc(CO)c(Cl)c3)c2)CCC1 [compound 155557185] |  |  |  |  |  | 8 ± 3 µM
15 | CC(=O)NCc1ccc(-c2cc(Cl)cc(C3(C(=N)N)CCC3)c2)cc1 [compound 155563897] |  |  |  |  |  | 20 ± 3 µM
